Here are results for three molecules from patent publication US7341836B2, “Modified cyclic nucleotide gated ion channels” (The Regents of the University of Colorado, priority 2001, dated 2008).

Data set [1] has as its system PDE activity in HEK-293 cells. In words: Effect and in vivo KI of PDE inhibitors on forskolin-induced Ca2+ influx through CNG channels. The following applies: for effect on forskolin-induced Ca2+ influx: 1 μM forskolin, IBMX 10 or 100 μM, RO-20-1724 10 μM; for time to complete equilibration across the plasma membrane of HEK-293 cells: human, pH 7.4. The procedure: Next, experiments were conducted to pharmacologically identify the PDE type(s) that regulates cAMP levels near CNG channels. The C460W/E583M channels were used to monitor forskolin-stimulated cAMP accumulation in the presence and absence of a series of PDE inhibitors. […] In these experiments, inhibitor concentrations were used at which specific PDE types should be inhibited.
This required developing a quantitative framework to assess the relationship between cAMP synthesis, hydrolysis, and redistribution throughout the cell. Thus, the following formalism was adopted:
[formula] where C is the steady-state rate of cAMP synthesis by AC, Vmax is the maximal rate of cAMP hydrolysis, Km is the Michaelis constant for PDE, and kf is the rate constant of cAMP flux out of the microdomain. In order to estimate KI for the PDE inhibitors two assumptions were made. First, it was assumed that at low levels of AC stimulation and PDE inhibition, the concentration of local cAMP is low and diffusion of cAMP out of the microdomain is negligible. Second, the assumption was made that cAMP levels reach steady-state shortly after AC stimulation (i.e., equal rates of synthesis and hydrolysis). With these assumptions, Eq. 4 can be simplified to:
[formula] […] At low cAMP concentrations (<K1/2 for the channel), the cAMP concentration is proportional to the square root of the Ca^2+ influx rate (the Hill coefficient for channel activation is approximately 2). Thus, KI, can be estimated using a linear fit to the square root of the slopes of the fluorescence traces as a function of inhibitor concentration (See, FIG. 11).
Increases in local cAMP concentration activate CNG channels and trigger Ca^2+ entry. Ca^2+ influx was monitored in cell populations using the fluorescent indicator fura-2.
Additions were made by pipetting stock solutions into a stirred cuvette. The solutions were then assayed using an LS-50B spectrofluorimeter (Perkin Elmer). […]
Fluorescence was measured at an excitation wavelength of 380 nm and an emission wavelength of 510 nm. […] The MATLAB software package (MathWorks) was used for curve fitting and simulations.
The C460W/E583M channels were used to monitor forskolin-stimulated cAMP accumulation in the presence and absence of a series of PDE inhibitors. […] In these experiments, inhibitor concentrations were used at which specific PDE types should be inhibited.
[formula] where C is the steady-state rate of cAMP synthesis by AC, Vmax is the maximal rate of cAMP hydrolysis, Km is the Michaelis constant for PDE, and kf is the rate constant of cAMP flux out of the microdomain. In order to estimate KI for the PDE inhibitors, two assumptions were made.

The subject of the next data set is PDE III. Conditions: cited from earlier work.
Data set [2] relates to HEK-293 cells expressing C460W/E583M channels. Description: PGE1-induced cAMP responses in cell populations (Ca2+ influx through C460W/E583M channels). The data set is classed as cell-based, human. Conditions: for effect of PDE inhibitor added after PGE1: 100 μM IBMX or 10 μM RO-20-1724. An excerpt: In this Example, experiments conducted to detect cAMP levels in cells are described. Changes in cyclic AMP concentrations in response to PGE1 stimulation were monitored in HEK-293 cells by measuring Ca^2+ influx through C460W/E583M CNG channels (See, Rich et al. [2001], supra). HEK-293 cells express a variety of extracellular receptors including prostanoid receptors (Thomas and Hoffman, Mol. Pharmacol., 49:907-914 [1996]), and the cAMP-specific PDE type IV (Rich et al. [2001], supra; and Hoffmann et al., EMBO J., 18:893-903 [1999]). Based on PCR analysis, these cells also appear to express AC types II, […], VI, and VII, (Hellevuo et al., Biochem. Biophys. Res. Commun., 192:311-318 [1993]). C460W/E583M channels were expressed heterologously using an adenovirus construct (See, Rich et al. [2001], supra). The Ca^2+ permeability of the channel was used to detect changes in local cAMP concentration; the fluorescent indicator fura-2 was used to monitor Ca^2+ entry. With this approach, incremental changes in cAMP concentration are readily detected as changes in relative Ca^2+ influx rates through C460W/E583M channels (See, Rich et al., [2001], supra).
Transient responses were observed over a large range of PGE1 concentrations, from 0.01 to 10 μM (FIG. 17, Panel A). […] The decline was unlikely to result primarily from a reduction in AC activity (e.g., receptor desensitization), because of the sustained accumulation of total cellular cAMP in the presence of IBMX (See, FIG. 16, Panel B). To verify this, 100 μM IBMX was added at various times after PGE1 application.
To test whether PGE1 did indeed increase the total PDE activity, 100 nM PGE1 were added at various times after the initial application of 100 nM PGE1 (a subsaturating concentration). There was a negligible response to the subsequent addition of PGE1, even after 50 min (FIG. 17, Panel D). Taken together, the results of the experiments shown in FIG. 17, Panels C and D argue that the cAMP transient is due to an initial increase in AC activity, followed by a more profound increase in PDE activity. […] As indicated herein, these processes are crucial for the generation of spatially and temporally distinct cAMP signals.

The mark [3] stands for this setting: C460W/E583M channels, 0.5 μM forskolin, n=4.
Setting [4] is: FIG. 11, the experiments shown, C460W/E583M channels, 0.5 μM forskolin.

Entries after “also recorded” stand apart in the source; their conditions may differ.

A word on the Ki: it is the equilibrium dissociation constant of an inhibitor or competing ligand from its target. A low value points to higher affinity. For the molecule `COc1ccc(C2CNC(=O)C2)cc1OC1CCCC1` (stereo not drawn) [Rolipram], in data set [1] (50 nM rolipram at 0 s, 0.5 μM forskolin at 180 s, C460W/E583M channels), the “slope of ΔF/F0” value turned out to be 0.00062 s⁻¹. Also, the Ki in data set [1] (setting [3]) was 70 ± 20 nM; in data set [1] (setting [4]), 90 nM. Further, the “effect on forskolin-induced Ca2+ influx” value in data set [1] (C460W/E583M channels) is recorded as “significantly increased the forskolin-induced Ca^2+ influx”.
For orientation: IC50 means the concentration that gives 50% inhibition. With `CCCCOc1cc(CC2CNC(=O)N2)ccc1OC` (stereo not drawn) [RO-20-1724, 4-(3-butoxy-4-methoxybenzyl)-2-imidazolidinone], the IC50 in the data set on PDE III was 52000 nM. The “effect of PDE inhibitor added after PGE1” value in data set [2] is recorded as “caused sharp increases in cAMP”. Further, the Ki in data set [1] (setting [3]) came to 130 ± 20 nM; in data set [1] (setting [4]) it was 140 nM; in data set [1] (Δ61-90/C460W/E583M channels, n=3), 150 ± 20 nM. Besides, in data set [1] (C460W/E583M channels), the “effect on forskolin-induced Ca2+ influx” value is “significant forskolin-induced Ca^2+ influx was observed; also recorded: influenced the time course of forskolin-induced Ca^2+ influx”. In addition, the “time to complete equilibration across the plasma membrane of HEK-293 cells” value in data set [1] is less than 180 s.
As for `CC(C)Cn1c(=O)n(C)c(=O)c2[nH]cnc21` [IBMX, 3-isobutyl-1-methylxanthine], the half-inhibitory concentration (IC50) in the data set with PDE III was 2000 nM. The “slopes of the IBMX-induced responses” value in data set [2] (100 μM IBMX added 1-50 min after 100 nM PGE1) came to 0.0044 ± 0.0008 s⁻¹. Also, in data set [2], the “effect of PDE inhibitor added after PGE1” value is reported as “triggered a rapid Ca^2+ influx”. In addition, the Ki in data set [1] (setting [3]) amounted to 11000 ± 2000 nM; in data set [1] (setting [4]), 10000 nM. In addition, in data set [1] (C460W/E583M channels), the “effect on forskolin-induced Ca2+ influx” value is “significant forskolin-induced Ca^2+ influx was observed; also recorded: influenced the time course of forskolin-induced Ca^2+ influx”. The “time to complete equilibration across the plasma membrane of HEK-293 cells” value in data set [1] was less than 180 s.
